Read-outs that look alike come from different tables or passages of the source.
What was measured:
[1] = system: mouse bone marrow cells transfected with mutant TS (TS175); test: CFU-GM / HPPCFU-C assay, marrow transfected with plasmid TS175; type: cell-based
Experimental: (§1) DNA into Mouse Bone Marrow Progenitor Cells Twenty micrograms of plasmid DNA (TS161 or TS175) and ten micrograms of DOTAP were diluted to 100 μl with HBS buffer and incubated at room temperature for 10 minutes. The mixture was added to 2×10^6 mouse bone marrow cells suspended in 0.5 ml of IMDM medium (in a 35 mm culture dish). After a 4 hour incubation at 37° C., 2 ml of IMDM with 30% FBS was added to each dish and the incubation was continued for 24 hours. […] Transfected cells prepared as described above were distributed into 10×35 mm dishes (3×10^5 cells in […] IMDM media/dish). […] Drug was added at the indicated concentration to each dish and the cells were cultured at 37° C. (5% CO2) for 10-14 days.

[2] = target: TS-negative FSthy21 cells transfected with wild-type human TS cDNA (Homo sapiens, UniProt P04818, P2L, cells depend on it); test: Growth inhibition assay (alamar Blue), TS-negative cells transfected with wild-type human TS cDNA; type: cell-based, mouse; details: Tomudex, 7-day exposure, read-out: IC50 values
[3] = system: murine bone marrow cells infected with Wt TS vector; test: CFU-GM assay, marrow infected with Wt TS retroviral vector; type: cell-based
FPGS = FPGS (Homo sapiens, UniProt Q05932); details: cited from earlier work
TS = TS (Homo sapiens, UniProt P04818); details: enzyme assays; cited from earlier work
cell growth = details: cited from earlier work
[4] = system: mouse bone marrow cells (N.B.M.); test: CFU-GM / HPPCFU-C assay, N.B.M.; type: cell-based
[5] = target: TS-negative FSthy21 cells transfected with I108A mutant human TS cDNA (Homo sapiens, UniProt P04818, P2L/I108A, cells depend on it); test: Growth inhibition assay (alamar Blue), I108A transfectants; details: read-out: IC50 values, Tomudex, 7-day exposure
Experimental: The mouse TS-negative FSthy21 cells were used as the host for DNA transfections. This cell line, which is a TS-deficient derivative of mouse FM3A cells, was routinely maintained in MEM medium supplemented with 10% fetal bovine serum and 10×10^−5 M thymidine. Transfections were performed by DOTAP, using 10 μg of DNA/culture. Four days after transfection, cells were placed in selective medium, which contain no thymidine and reduced folate. Colonies having the ability to grow in the absence of thymidine were pooled and propagated as a mass culture.
Logarithmically growing suspension mouse TS-20 negative FSthy21 cells transfected with wild-type or variant human TS cDNA were seeded in 96-well plates at 1,000 cells/well in 180 μl of complete medium. […] Cell viability was measured by the alamar Blue™ assay. This method incorporates an oxidation-reduction (REDOX) indicator that both fluoresces and changes color in response to chemical reduction of growth medium resulting from cell growth. To above 96-well cultured cells, 25 μl of Alamar Blue (Alamar, Sacramento, Calif.) (10% of incubation volume) were added according to the manufacturer's instructions. The culture 96-well plates were then incubated at 37° C. for 4 hours. Viable cells induce chemical reduction of the media which results in a change in REDOX color from blue to red. The intensity of red color (and fluoresces) is proportional to the viable cells. After incubation, fluorescence is was read at 530-560 nm excitation wavelength and 590 nm emission wavelength by an automated plate reader (model EL340; Bio-Tek). Drug concentrations needed to reduce cell growth by 50% (IC50 values) were determined graphically by plotting of cell growth verses inhibitor concentration.
The effect of three antifolates and FdUrd on the growth characteristics of transfectants that stably express various TS proteins was evaluated by cytotoxicity studies. Cell growth was measured by the alamar blue assay. IC50 values were calculated as the concentration of inhibitor required to inhibit growth by 50% compared to wild-type transfected cells grown under identical conditions.

Normal Bone Marrow cells = test: CFU-GM assay, Normal Bone Marrow (retroviral vector study); type: cell-based, murine
Description: (§2) The following tables 15-17 summarize additional proof that these mutants confer resistance to chemotherapeutic agents by increasing the number of drug resistant CFU-GM colonies formed by murine bone marrow cells infected with retroviral vectors containing these mutant TS cDNAs.

[6] = system: murine bone marrow cells infected with I108A mut-TS vector; test: CFU-GM assay, marrow infected with I108A mut-TS retroviral vector; type: cell-based
Description: as §2

[7] = system: mouse bone marrow cells transfected with wild type TS (TS161); test: CFU-GM / HPPCFU-C assay, marrow transfected with plasmid TS161; type: cell-based
Experimental: as §1

Chain of TS-negative FSthy21 cells transfected with wild-type human TS cDNA (P04818 whole entry P2L): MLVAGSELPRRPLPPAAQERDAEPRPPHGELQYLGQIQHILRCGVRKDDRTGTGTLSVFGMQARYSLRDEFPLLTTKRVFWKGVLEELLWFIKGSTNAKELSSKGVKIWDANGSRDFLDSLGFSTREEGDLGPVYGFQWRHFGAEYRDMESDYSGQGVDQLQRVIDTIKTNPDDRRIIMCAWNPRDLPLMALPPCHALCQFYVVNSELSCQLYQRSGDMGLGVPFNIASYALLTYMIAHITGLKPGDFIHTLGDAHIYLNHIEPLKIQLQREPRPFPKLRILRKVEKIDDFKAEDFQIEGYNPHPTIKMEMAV
Chain of TS-negative FSthy21 cells transfected with I108A mutant human TS cDNA (P04818 whole entry P2L/I108A): as the sequence (P04818 whole entry P2L) above, with I108A counted along it
Chain of TS (P04818 whole entry): as the sequence (P04818 whole entry P2L) above, with L2P counted along it
Chain of FPGS (Q05932 43-587, species assumed): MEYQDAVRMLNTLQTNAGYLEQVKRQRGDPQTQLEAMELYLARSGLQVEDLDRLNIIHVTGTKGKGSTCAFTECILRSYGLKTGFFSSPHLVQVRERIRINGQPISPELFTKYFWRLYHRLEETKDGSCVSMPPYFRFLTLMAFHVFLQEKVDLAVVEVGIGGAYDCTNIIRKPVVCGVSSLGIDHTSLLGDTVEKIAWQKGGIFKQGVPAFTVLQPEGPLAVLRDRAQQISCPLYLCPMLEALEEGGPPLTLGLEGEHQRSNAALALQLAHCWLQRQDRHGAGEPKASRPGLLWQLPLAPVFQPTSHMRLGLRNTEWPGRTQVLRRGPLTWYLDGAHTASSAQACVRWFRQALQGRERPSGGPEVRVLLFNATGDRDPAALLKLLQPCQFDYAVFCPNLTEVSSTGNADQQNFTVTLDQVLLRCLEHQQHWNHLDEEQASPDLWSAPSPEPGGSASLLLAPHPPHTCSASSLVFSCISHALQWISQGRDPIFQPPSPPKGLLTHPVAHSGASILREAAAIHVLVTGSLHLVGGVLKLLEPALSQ

Structure (SMILES): Cc1nc2ccc(CN(C)c3ccc(C(=O)N[C@@H](CCC(=O)O)C(=O)O)s3)cc2c(=O)[nH]1 [Tomudex, N-(5-[N-(3,4-dihydro-2-methyl-4-oxoquinazolin-6-ylmethyl)-N-methylamino-]-2-thenoyl)-L-glutamic acid]
- CFU-GM colonies ([1]; tomudex 1 × 10^−8 M): 64
- CFU-GM colonies, % in parentheses ([1]; tomudex 1 × 10^−8 M): 44%
- HPPCFU-C colonies ([1]; tomudex 1 × 10^−8 M): 9
- HPPCFU-C colonies, % in parentheses ([1]; tomudex 1 × 10^−8 M): 6%
- CFU-GM colonies ([1]; tomudex 2 × 10^−8 M): 14
- CFU-GM colonies, % in parentheses ([1]; tomudex 2 × 10^−8 M): 10%
- GI50 ([2]; wild-type/clone (1) [161-1]): 2.37 ± 0.18 nM
- GI50 ([2]; wild-type/clone (2) [161-2]): 1.8 ± 0.47 nM
- GI50 ([2]; wild-type/clone (3) [161-3]): 3.37 ± 0.34 nM
- CFU-C ([3]; Tomudex 1 × 10^−8 M): 33
- CFU-C, % in parentheses ([3]; Tomudex 1 × 10^−8 M): 20%
- HPPCFU-C ([3]; Tomudex 1 × 10^−8 M): 10
- HPPCFU-C, % in parentheses ([3]; Tomudex 1 × 10^−8 M): 23%
- CFU-C ([3]; Tomudex 2 × 10^−8 M): 10
- CFU-C, % in parentheses ([3]; Tomudex 2 × 10^−8 M): 6%
- affinity for FPGS higher than that of CB3717 (FPGS): 30 times
- less potent as a TS inhibitor than CB3717 (TS): 20 times
- more active in inhibiting cell growth than CB3717 (cell growth): 500 fold
- CFU-GM colonies ([4]; tomudex 1 × 10^−8 M): 14
- CFU-GM colonies, % in parentheses ([4]; tomudex 1 × 10^−8 M): 17%
- HPPCFU-C colonies ([4]; tomudex 1 × 10^−8 M): 0
- CFU-GM colonies ([4]; tomudex 2 × 10^−8 M): 0
- GI50 ([5]; 1108A/clone (1) [175-1]): 97.9 ± 17.1 nM
- GI50 ([5]; 1108A/clone (2) [175-2]): 76.8 ± 7.3 nM
- GI50 ([5]; 1108A/clone (3) [175-3]): 174 ± 7 nM
- CFU-C (Normal Bone Marrow cells; Tomudex 1 × 10^−8 M): 16
- CFU-C, % in parentheses (Normal Bone Marrow cells; Tomudex 1 × 10^−8 M): 10%
- HPPCFU-C (Normal Bone Marrow cells; Tomudex 1 × 10^−8 M): 0
- CFU-C (Normal Bone Marrow cells; Tomudex 2 × 10^−8 M): 0
- CFU-C ([6]; Tomudex 1 × 10^−8 M): 53
- CFU-C, % in parentheses ([6]; Tomudex 1 × 10^−8 M): 36%
- HPPCFU-C ([6]; Tomudex 1 × 10^−8 M): 26
- HPPCFU-C, % in parentheses ([6]; Tomudex 1 × 10^−8 M): 53%
- CFU-C ([6]; Tomudex 2 × 10^−8 M): 25
- CFU-C, % in parentheses ([6]; Tomudex 2 × 10^−8 M): 15%
- CFU-GM colonies ([7]; tomudex 1 × 10^−8 M): 28
- CFU-GM colonies, % in parentheses ([7]; tomudex 1 × 10^−8 M): 26%
- HPPCFU-C colonies ([7]; tomudex 1 × 10^−8 M): 0
- CFU-GM colonies ([7]; tomudex 2 × 10^−8 M): 0

— patent publication US6416987B1, “Mutants of thymidylate synthase and uses thereof” (Sloan Kettering Institute for Cancer Research, priority 1997, dated 2002)
